Holding throughout (assay): NCI-60 cell line screen, 48 h
For assay [1], the system named is UACC-62 melanoma.
Assay [2] concerns MOLT-4 leukemia.
In assay [3] the test system is M14 melanoma.
The subject of assay [4] is DU-145 prostate.
Assay [5] deals with SK-MEL-5 melanoma.
In assay [6] the test system is NCI-H23 lung.
The subject of assay [7] is OVCAR-5 ovarian.
Assay [8] deals with HCC-2998 colon.
Assay [9] relates to SK-OV-3 ovarian.
For assay [10], the system named is MDA-MB-231 breast.
In assay [11] the test system is A549 NSCLC.
Assay [12] concerns HS 578T breast.
The subject of assay [13] is SF-295 CNS.
The test system of assay [14] is NCI-H522 lung.
Assay [15] concerns K-562 leukemia.
The subject of assay [16] is SNB-19 CNS.
Assay [17] deals with T-47D breast.
Assay [18] deals with HOP-92 NSCLC.

Where “and” joins values, the source holds several entries; their conditions need not be identical. Equal entries are not always repeated.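 Results reflect a 48-hour exposure of cells in 96-well plates to compound at five concentrations. Definition used: TGI = concentration required for complete inhibition of growth.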

Consider `CC(C)N=C(NC#N)NS(=O)(=O)c1cnccc1Nc1ccc(Cl)cc1`, for which the TGI in assay [1], in assay [2], in [3], in assay [4], in [5] and in assay [6] was above 100 µM each time. In addition, the TGI in [7], in [8], in assay [9], in assay [10], in [11] and in assay [12] was above 100 µM throughout. In addition, the TGI in [13], in assay [14], in [15], in [16] and in [17] was above 100 µM throughout.
Turning to `N#CC1CCN2N=C(c3ccccc3)SC12c1ccccc1` (centres undefined), the TGI in assay [1] is 29.5 µM; in [2], 83.4 µM; in [3], above 100 µM; in [5] it was above 100 µM; in assay [6], above 100 µM; in assay [7], above 100 µM. Further, the TGI in assay [18], in assay [8], in [9], in assay [10], in assay [11] and in [12] was above 100 µM throughout. In addition, the TGI in assay [13], in assay [14], in assay [15], in assay [16] and in assay [17] was above 100 µM each time.
`Cc1c(C(=O)O)c2cc3ccccc3cc2c(=O)n1C`: the TGI in [1], in assay [3], in assay [6], in assay [7], in assay [18] and in assay [8] was above 10 µM each time. Further, the TGI in assay [9], in assay [10], in assay [11], in assay [12], in [13] and in [14] was above 10 µM throughout. Also, the TGI in [16] and in [17] was above 10 µM each time.
For the compound `OCC1OC(n2nc(-c3ccccc3)nc2-c2cnccn2)C(O)C1O` (centres undefined), the TGI in assay [1], in [2], in assay [3], in assay [4], in assay [5] and in assay [6] was above 100 µM throughout. In addition, the TGI in [7], in assay [18], in [8], in assay [9], in assay [10] and in assay [11] was above 100 µM in each case. In addition, the TGI in assay [13], in [14], in [15], in assay [16] and in assay [17] was above 100 µM in each case.
Regarding `C[C@@H](NC(=O)OC1C=CC2(CC1)C(=O)N(C)c1ccccc12)c1cccc2ccccc12` (some centres undefined), the TGI in assay [1], in [2], in [3], in [4], in assay [5] and in assay [6] was above 25 µM throughout. Further, the TGI in assay [7], in assay [18], in [8], in assay [9], in assay [10] and in [11] was above 25 µM each time. The TGI in assay [13], in [14], in assay [15], in assay [16] and in [17] was above 25 µM throughout.
Turning to `COc1ccc(C2=NN(c3ccccc3)C(c3cc4cc(Br)ccc4nc3Cl)C2)cc1` (centres undefined), the TGI in assay [2], in [3], in assay [4], in [5], in [6] and in [7] was above 25 µM each time. Moreover, the TGI in assay [18], in assay [9], in [11], in assay [12], in [13] and in [14] was above 25 µM in each case. In addition, the TGI in assay [15], in assay [16] and in assay [17] was above 25 µM throughout.
For the compound `COP1(=O)NCc2ncccc2O1` (centres undefined), the TGI in assay [1], in assay [2], in assay [3], in [4], in assay [5] and in assay [6] was above 100 µM throughout. The TGI in assay [7], in assay [18], in assay [8], in [10], in assay [11] and in [13] was above 100 µM each time. In addition, the TGI in assay [15], in assay [16] and in assay [17] was above 100 µM each time.
On to `Cc1ccc2c(=O)c(-c3nnc(N)s3)c[nH]c2n1`, for which the TGI in [1], in [2], in [3], in assay [4], in [5] and in assay [6] was above 100 µM each time. The TGI in assay [7], in [10], in assay [11], in [12], in [13] and in [14] was above 100 µM throughout. In addition, the TGI in assay [15], in assay [16] and in assay [17] was above 100 µM in each case.
On to `COc1ccc(N[C@H](CS(=O)c2ccc(C)cc2)C(F)(F)C(F)(F)F)cc1` (some centres undefined), for which the TGI in assay [1], in assay [2], in [3], in assay [4], in assay [5] and in [6] was above 100 µM throughout. Moreover, the TGI in [7] is above 100 µM; in [18], 64.5 µM; in [8] it was above 100 µM; in [9], above 100 µM; in [11], above 100 µM; in assay [12] it was above 100 µM. The TGI in assay [13], in assay [14], in [15], in assay [16] and in assay [17] was above 100 µM throughout.
Regarding `O=C(N/N=C1/C(=O)c2c3ccccc3cc3cccc1c23)c1cccc(Cl)c1`, the TGI in assay [1], in assay [2], in assay [3], in [4], in assay [5] and in [6] was above 100 µM throughout. For the same compound, the TGI in [7], in assay [18], in assay [8], in assay [9], in assay [10] and in [11] was above 100 µM in each case. Further, the TGI is 67.2 µM in [12], above 100 µM in [15] and above 100 µM in assay [16].
Consider `Cc1nc2ccccc2c(=O)n1NC(=O)c1ccccc1O`, for which the TGI in assay [1], in assay [2], in assay [3], in assay [4], in assay [5] and in [6] was above 100 µM each time. Moreover, the TGI in assay [7], in assay [18], in assay [8], in assay [9], in assay [10] and in assay [11] was above 100 µM throughout. The TGI in assay [12], in assay [13], in assay [14], in assay [15] and in [16] was above 100 µM each time.
With `COc1ccccc1S(=O)Nc1ccccc1` (centres undefined), the TGI in [1], in assay [2], in assay [4], in assay [5], in assay [6] and in assay [7] was above 100 µM in each case. The TGI in [8], in [10], in assay [11], in assay [12], in [13] and in assay [14] was above 100 µM throughout. The TGI is above 100 µM in assay [15], above 100 µM in assay [16] and 95.5 µM in [17].
Take `O=c1cc(-c2ccccc2)oc2ccc(Oc3nnnn3-c3ccccc3)cc12`: the TGI in assay [1] is above 100 µM; in assay [2] it was above 100 µM; in assay [3], above 100 µM; in [4], above 100 µM; in assay [5] it was above 100 µM; in [6], above 93.2 µM. The TGI in [7] was above 100 µM; in assay [18] it was 58.1 µM; in assay [8] it was above 100 µM; in assay [9], above 100 µM; in assay [11] it was above 100 µM; in [12], above 83 µM. Further, the TGI was above 79.9 µM in [13]; above 100 µM in [14]; above 100 µM in [15]; above 82.6 µM in [16]; above 100 µM in assay [17].
Consider `COc1ccc(-n2c(C)nc3ccc(NC4OCC(O)C(O)C4O)cc3c2=O)cc1` (centres undefined), for which the TGI in assay [1] was above 100 µM; in assay [2], 84.7 µM and > 100 µM; in assay [4], above 100 µM; in [5], above 100 µM; in [6] it was above 100 µM; in assay [7], above 100 µM. The TGI in assay [8] was above 100 µM; in [10], above 100 µM; in assay [12] it was above 100 µM; in assay [13], above 100 µM; in assay [14], 72 µM and 55 µM; in assay [15], 87.2 µM and 95.1 µM. Also, the TGI in assay [16] and in [17] was above 100 µM throughout.
As for `Cc1ccc2[nH]c3[nH]c(=O)[nH]c(=O)c3c2c1`, the TGI in [1], in assay [2], in [3], in assay [4], in assay [5] and in assay [6] was above 100 µM throughout. Further, the TGI in assay [7], in assay [18], in assay [9], in [11], in assay [12] and in assay [13] was above 100 µM in each case. The TGI in assay [14], in [15], in assay [16] and in assay [17] was above 100 µM in each case.
Regarding `COc1ccc(N2C(=O)/C(=C\c3cccc(Oc4ccccc4)c3)S(=O)(=O)C2c2ccccc2)cc1` (centres undefined), the TGI in [1] was above 100 µM; in assay [2] it was 22.5 µM; in assay [3] it was above 100 µM; in [4], above 100 µM; in assay [5], 98.7 µM; in assay [6], above 100 µM. For the same compound, the TGI was above 100 µM in assay [7]; above 100 µM in assay [18]; above 100 µM in [8]; above 100 µM in assay [10]; above 100 µM in [11]; 60.8 µM in [14]. The TGI in assay [15], in assay [16] and in assay [17] was above 100 µM each time.
On to `CC(=O)OCC12C(OC(C)=O)C[C@@H](C)C3(CC(c4ccoc4)OC3=O)C1CCC(O)C21CO1` (some centres undefined), for which the TGI in assay [1], in assay [2], in assay [3], in assay [4], in [5] and in assay [6] was above 100 µM each time. Besides, the TGI in assay [7], in assay [18], in assay [8], in assay [10], in assay [11] and in [12] was above 100 µM each time. Also, the TGI in assay [13], in assay [14], in [15] and in [16] was above 100 µM each time.

The record behind these values is PubChem BioAssay (NCI).
